Data taken from patent US9606124B2, “Methods of detecting and treating stem-cell containing solid tumors” (The Regents of The University of Michigan, priority 2008, dated 2017).
Entries after “also recorded” stand apart in the source; their conditions may differ.

Experiments:
[1] = tested on: FAS-ligand mRNA; test: Quantitative RT-PCR of FAS-ligand mRNA in SUM159 cells; format: cell-based, human; details: repertaxin 100 nM, FAS agonist 500 ng/ml, docetaxel 10 nM, trihydrate
Protocol: RNA extraction and qRT-PCR. After SUM159 cells were treated, total RNA was isolated using RNeasy Mini Kit (QIAGEN) and utilized for real-time quantitative RT-PCR (qRT-PCR) assays in a ABI PRISM® 7900HT sequence detection system.

[2] = tested on: CD44+/CD24- cell population of MC1, UM2, UM3 xenografts; test: CD44+/CD24- cells in treated tumors (flow cytometry); parameters: species or system NOD/SCID mice; details: mouse, in vivo
Protocol: (§1) Animal model. […] Cells from these tumors were transplanted orthotopically in the humanized cleared fat-pad of NOD/SCID mice, without cultivation in vitro. […] 50,000 cells from each xenotransplants were injected in the humanized fat pad of NOD/SCID mice and monitored the tumor growth. […] The animals were euthanized when the tumors were approximately 1.5 cm in the largest diameter, to avoid tumor necrosis and in compliance with regulations for use of vertebrate animal in research. A portion of each fat pad injected was fixed in formalin and embedded in paraffin for histological analysis. The rest of the tumor cells were re-implantated into secondary NOD/SCID mice. Serial dilutions of cells were utilized for the re-implantation with injection of 10,000, 1,000, and 100 cells for each treated tumor.
Flow cytometry analysis. […] CD95/FAS staining were performed utilizing an anti-CD95 labeled APC (1:20, BD biosciences). […] Fresh cells were stained with 1 μg/ml PI (Sigma) for 5 min for viability.

[3] = tested on: ALDEFLUOR-positive cells of SUM159, MC1, UM2, UM3 tumors; test: ALDEFLUOR assay on treated tumor xenografts; format: in vivo, NOD/SCID mice; details: residual tumors after four weeks of treatment; trihydrate
Protocol: ALDEFLUOR assay. […] In order to eliminate cells of mouse origin from the xenotransplanted tumors, cell population was stained with an anti-H2Kd antibody (BD biosciences, 1/200, 20 min on ice) followed by staining with a secondary antibody labeled with phycoerythrin (PE) (Jackson labs, 1/250, 20 min on ice).
as §1

[4] = tested on: SUM159 cell line and human breast cancer xenografts MC1, UM2, UM3; test: Tumor growth of breast cancer xenografts in the mammary fat pad; format: in vivo, NOD/SCID mice; details: repertaxin 15 mg/Kg s.c. twice a day 28 days, docetaxel 10 mg/Kg i.p. once a week, start at tumor size about 4 mm, trihydrate
Protocol: For each sample, 50,000 cells were injected into the mammary fat pad of NOD-SCID mice which were monitored for tumor size. Injections were started when the tumor size was about 4 mm.
as §1

[5] = tested on: FOXO3A; test: Immunohistochemistry of FOXO3A in xenotransplants; parameters: species or system NOD/SCID mice; details: mouse, in vivo
Protocol: (§2) Immunostaining. For immunofluorescent staining, sorted CXCR1-positive cells were fixed with 95% methanol at −20° C. for 10 minutes. Cells were rehydrated in PBS and incubated with respective antibodies at room temperature for 1 hour. Primary antibodies used were P-FAK (1:50, Cell Signaling Technology), P-AKT (1:300, Cell Signaling Technology), and FOXO3a (1:250, Cell Signaling Technology). Slides were then washed and incubated 30 minutes with PE conjugated secondary antibodies (Jackson labs). The nuclei were counterstained with DAPI/antifade (Invitrogen) and coverslipped. […] Immunohistochemistry for the detection of ALDH1 (1:100, BD biosciences), P-FAK, P-AKT, FOXO3a expression was done on paraffin section (Ginestier et al. Am. J Pathol. 161:1223-1233, herein incorporated by reference in its entirety). Staining was done utilizing the Histostainplus kit (Zymed laboratories). Diaminobenzidine (DAB) or 3-amino-9-ethylcarbazole (AEC) was used as chromogen and sections were counterstained with hematoxylin.

[6] = tested on: cells from primary tumors SUM159, MC1, UM2, UM3; test: Re-implantation of cells from treated tumors into secondary mice; format: in vivo, NOD/SCID mice
Protocol: as §1, with “Serial dilutions of cells were utilized for the re-implantation with injection of 10,000, 1,000, and 100 cells for each treated tumor.” left out

[7] = tested on: ALDH1; test: Immunohistochemistry of ALDH1 in xenotransplants; format: in vivo, NOD/SCID mice; details: compared to untreated tumors
Protocol: as §2

[8] = tested on: normal mammary epithelial cells; test: Mammosphere formation by normal mammary epithelial cells; format: cell-based, human; details: normal mammary epithelial cells in suspension, human recombinant IL-8
[9] = tested on: four breast cell lines cultured in adherent conditions; test: ALDEFLUOR-positive population of breast cell lines treated with IL8; format: cell-based; details: human recombinant IL8
Protocol: ALDEFLUOR Assay and Separation of the ALDH-positive Population by FACS. ALDH activity was assessed in 33 BCLs representing the main molecular subtypes of human breast cancer. The ALDEFLUOR kit (StemCell technologies, Durham, N.C., USA) was used to isolate the population with high ALDH enzymatic activity (17). Cells obtained from subconfluent cell lines after trypsinization or from freshly dissociated xenografts were suspended in ALDEFLUOR assay buffer containing ALDH substrate (BAAA, 1 μmol/l per 1×10^6 cells) and incubated for 40 minutes at 37° C. In each experiment a sample of cells was stained under identical conditions with […] of diethylaminobenzaldehyde (DEAB), a specific ALDH inhibitor, as negative control. Flow cytometry sorting was conducted using a FACStarPLUS (Becton Dickinson). ALDEFLUOR fluorescence was excited at 488 nm and detected using standard fluorescein isothiocyanate (FITC) 530/30 band pass filter. For xenotransplanted tumors, incubation with an anti-H2Kd antibody (BD biosciences, 1/200, 20 min on ice) followed by a secondary antibody labeled with phycoerythrin (Jackson labs, 1/250, 20 min on ice) was used to eliminate cells of mouse origin. […] For both cell lines, sorted ALDEFLUOR-positive populations contained more than 98% of ALDEFLUOR-positive cells and no ALDEFLUOR-positive cells were detected in the ALDEFLUOR-negative population.

[10] = tested on: ALDEFLUOR-positive and -negative cells of HCC1954, MDA-MB-453, SUM159; test: Matrigel invasion assay with IL8 as attractant; format: cell-based, human; details: IL8 100 ng/ml as attractant
Protocol: Invasion assay. Assays were done in triplicate in transwell chambers with 8 μm pore polycarbonate filter inserts for 12-well plates (Corning, N.Y.). Filters were coated with 30 ul of ice-cold 1:6 basement membrane extract (Matrigel, BD-Bioscience) in DMEM/F12 incubated 1 hour at 37° C. Cells were added to the upper chamber in 200 ul of serum-free medium. For the invasion assay, 5000 cells were seeded on the Matrigel-coated filters and the lower chamber was filled with 600 ul of medium supplemented with 10% human serum (Cambrex) or with 600 ul of serum-free medium supplemented with IL8 (100 ng/mL). After 48 hours incubation, the cells on the underside of the filter were counted using light microscopy. Relative invasion was normalized to the unseparated corresponding cell lines under serum condition.

[11] = tested on: HCC1954, SUM159, MDA-MB-453; test: Tumorsphere formation of breast cell lines treated with IL8; format: cell-based; details: human recombinant IL8
Protocol: Anchorage-independent culture. ALDEFLUOR-positive, -negative and unseparated cells from 184A1, SUM149 and SUM159 were plated as single cells in ultra-low attachment plates (Corning, Acton, Mass.) at low density (5000 viable cells/ml). Cells were grown in serum-free mammary epithelial basal medium (Cambrex Bio Science, Walkerville, Md.) for 3-7 days, as described (18). The capacity of cells to form spheres was quantified after treatment with different doses of IL8 (GenWay Biotech, San Diego, Calif.) added to the medium.

In the case of CC(=O)O[C@@]12CO[C@@H]1C[C@H](O)[C@@]1(C)C(=O)[C@H](O)C3=C(C)[C@@H](OC(=O)[C@H](O)[C@@H](NC(=O)OC(C)(C)C)c4ccccc4)C[C@@](O)([C@@H](OC(=O)c4ccccc4)[C@H]21)C3(C)C [Docetaxel, (2R,3S)-N-carboxy-3-phenylisoserine, N-tert-butyl ester, 13-ester with 5b-20-epoxy-12a,4,7b,10b,13a-hexahydroxytax-11-en-9-one 4-acetate 2-benzoate, trihydrate], the “increase of FAS-ligand mRNA level compared to non-treated cells” value ([1]; listed as docetaxel) was “induced both IL-8 and FAS-ligand mRNA”, the “increase of FAS-ligand mRNA level compared to non-treated cells” value [1] was “induced both FAS-ligand (A) and IL-8 (B) mRNA” and the “percent of CD44+/CD24- cells in residual tumors” value [2] was “unchanged or increased percent”. For the same compound, the “ALDEFLUOR-positive cells (cancer stem cells) in treated tumors, decrease compared to the control” value [3] was “unchanged or increased”, the “tumor size / tumor growth compared to the control” value ([4]; listed as docetaxel) was “significant inhibition of tumor growth; also recorded: statistically significant reduction of the tumor size” and the “tumor size / tumor growth compared to the control” value [4] was “statistically significant reduction of the tumor size”. The “nuclear FOXO3A in treated tumors” value [5] was “detected”, the Tumors/Injections ([6]; number of cells injected 100) was 8/9 and the Tumors/Injections ([6]; number of cells injected 250) was 2/3. For the same compound, the Tumors/Injections ([6]; number of cells injected 500) was 3/4, the Tumors/Injections ([6]; number of cells injected 1,000) was 6/6 and the Tumors/Injections ([6]; number of cells injected 2,500) was 2/2. The Tumors/Injections ([6]; number of cells injected 5,000) was 4/4, the Tumors/Injections ([6]; number of cells injected 10,000) was 2/2 and the “secondary tumor formation / regrowth from serial dilutions of treated primary tumors” value ([6]; secondary NOD/SCID mice, no further treatment, trihydrate) was “formed secondary tumors at all dilutions”. For the same compound, the “ALDH1-positive cells / ALDH1 expression in treated tumors” value [7] was “unchanged or increased”.

For “IL8: human recombinant IL8 (GenWay Biotech), chemokine ligand of CXCR1”, the “formation of primary and secondary mammospheres” value [8] was “increased the formation of primary (B) and secondary mammospheres (C) in a dose-dependent manner”, the “formation of primary and secondary mammospheres” value ([8]; listed as IL-8) was “increased the formation of primary and secondary mammospheres in a dose-dependent manner” and the ALDEFLUOR-positive population [9] was “increased the ALDEFLUOR-positive population in a dose-dependent manner”. For the same compound, the “invasive capacity of ALDEFLUOR-negative cells” value [10] was “did not have any effect; also recorded: no effect”, the “invasion of ALDEFLUOR-positive cells through Matrigel” value ([10]; compared to serum) was “increased invasion; also recorded: significant increase” and the “formation of primary and secondary tumorspheres” value [11] was “increased the formation of primary and secondary tumorspheres in a dose-dependent manner; also recorded: increased the formation of primary and secondary tumorospheres in a dose-dependent manner”.
